Measurements published in patent US6924302B2, “Substituted triazole diamine derivatives as kinase inhibitors” (Ortho McNeil Pharmaceutical, Inc., priority 2000, dated 2005).

Columns and labels:
Type in all cases: biochemical
[1] = target: T1, CDK1:Cyclin-B (Homo sapiens, UniProt P06493); experiment: CDK1 Screening Assay; conditions: Table 1; read-out: CDK1 IC50
T1 construct: purchased New England Biolabs 6020; host or cells: insect cells
Procedure: (§1) 70 μL of the kinase reaction mixture was dispensed into the well of a streptavidin coated FlashPlate™ (Cat. # SMP103, NEN, Boston, Mass.). Then 1 μL of test compound stock in 100% DMSO was added to the wells resulting in a final concentration of 1% DMSO in the reaction with a 100 μl final reaction volume. Next, CDK1:Cyclin-B protein was diluted in 50 mM Tris-HCl pH=8.0, 0.1% BSA at a concentration of 1 ng per μL and 30 μl (30 ng enzyme per test well) was added to each well to initiate the reaction. The reaction was incubated for one hour at 30° C. At the end of the 1-hour incubation, the reaction was terminated by aspirating the reaction mixture from the plate and washing the wells twice with PBS containing 100 mM EDTA. The histone-H1 biotinylated peptide substrate became immobilized on the Flashplate™ and the incorporation of ^33P-γ-ATP was measured by reading the plate on a scintillation counter. Inhibition of the enzymatic activity of CDK1 was measured by observing a reduced amount of ^33P-γ-ATP incorporated into the immobilized peptide.
Assays to test compound inhibition of other kinases were preformed using methods that measure the amount of phosphorylation of a biotinylated peptide substrate. Biotinylated peptide substrates were selected from the literature as appropriate for the enzyme being evaluated. […] Assay conditions vary slightly for each protein kinase, for example, insulin receptor kinase requires 10 mM MnCl2 for activity and Calmodulin-dependent protein kinase requires calmodulin and 10 mM CaCl2. These assay conditions are known in the art. The reaction mixture was dispensed into the wells of a streptavidin coated Flashplate and 1 μl drug stock in 100% DMSO was added to a 100 μl reaction volume resulting in a final concentration of 1% DMSO on the reaction. Enzyme was diluted in 50 mM Tris-HCl pH=8.0, 0.1% BSA and add to each well. The reaction was incubated for one hour at 30° C. in the presence of compound. After one hour the reaction mix was aspirated from the plate and the plate was washed with PBS containing 100 mM EDTA. The plate was read on a scintillation counter to determine ^33P-γ-ATP incorporated into the immobilized peptide. Test compounds were assayed in duplicate at 8 concentrations [100 uM, 10 uM, 1 uM, 100 nM, 10 nM, 1 nM, 100 pM, 10 pM]. A maximum and minimum signal for the assay was determined on each plate. The IC50 was calculated from the dose response curve of the percent inhibition of the maximum signal in the assay according to the formula [max signal—background/test compound signal—background (100)=% inhibition] by graphing the percent inhibition against the log concentration of test compound. Known inhibitor compounds appropriate for the kinase being assayed were also included on each plate. […]

[2] = target: T2, VEGF-R (vascular endothelial growth factor receptor-2) (Rattus norvegicus, UniProt O08775); experiment: VEGF-R Screening Assay; conditions: Table 1; read-out: VEGF-R IC50
T2 construct: polyhistidine (6xHIS) (N)
T2 sequence (O08775 786-1343): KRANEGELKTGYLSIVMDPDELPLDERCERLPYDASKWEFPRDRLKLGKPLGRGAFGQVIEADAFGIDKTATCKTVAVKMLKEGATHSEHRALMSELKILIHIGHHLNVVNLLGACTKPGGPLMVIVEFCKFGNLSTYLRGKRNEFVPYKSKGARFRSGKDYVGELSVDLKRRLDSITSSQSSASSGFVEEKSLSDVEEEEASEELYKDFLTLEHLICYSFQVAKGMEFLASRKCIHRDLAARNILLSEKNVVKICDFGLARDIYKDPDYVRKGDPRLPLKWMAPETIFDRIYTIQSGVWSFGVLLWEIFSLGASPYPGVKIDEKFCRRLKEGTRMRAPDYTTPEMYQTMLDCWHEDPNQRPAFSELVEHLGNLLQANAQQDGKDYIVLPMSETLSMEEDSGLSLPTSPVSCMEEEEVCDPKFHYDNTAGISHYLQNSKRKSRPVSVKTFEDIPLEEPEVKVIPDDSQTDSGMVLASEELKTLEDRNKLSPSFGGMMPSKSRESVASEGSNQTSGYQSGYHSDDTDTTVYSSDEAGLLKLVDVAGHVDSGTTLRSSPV
Procedure: as §1, with “a 100 μL final reaction” for “a 100 μl final reaction”, “volume. Next, soluble rat tyrosine kinase containing an N-terminal 6×HIS tag was diluted” for “volume. Next, CDK1:Cyclin-B protein was diluted”, “concentration of 5 ng per” for “concentration of 1 ng per”, “and 30 μL (150 ng enzyme” for “and 30 μl (30 ng enzyme”, “EDTA. The PLC1 biotinylated peptide” for “EDTA. The histone-H1 biotinylated peptide”, “activity of the VEGF-R was measured” for “activity of CDK1 was measured”
(§2) Assays to test compound inhibition of other kinases were preformed using methods that measure the amount of phosphorylation of a biotinylated peptide substrate. Biotinylated peptide substrates were selected from the literature as appropriate for the enzyme being evaluated. […] Assay conditions vary slightly for each protein kinase, for example, insulin receptor kinase requires 10 mM MnCl2 for activity and Calmodulin-dependent protein kinase requires calmodulin and 10 mM CaCl2. These assay conditions are known in the art. The reaction mixture was dispensed into the wells of a streptavidin coated Flashplate and 1 μl drug stock in 100% DMSO was added to a 100 μl reaction volume resulting in a final concentration of 1% DMSO on the reaction. Enzyme was diluted in 50 mM Tris-HCl pH=8.0, 0.1% BSA and add to each well. The reaction was incubated for one hour at 30° C. in the presence of compound. After one hour the reaction mix was aspirated from the plate and the plate was washed with PBS containing 100 mM EDTA. The plate was read on a scintillation counter to determine ^33P-γ-ATP incorporated into the immobilized peptide. Test compounds were assayed in duplicate at 8 concentrations [100 uM, 10 uM, 1 uM, 100 nM, 10 nM, 1 nM, 100 pM, 10 pM]. A maximum and minimum signal for the assay was determined on each plate. The IC50 was calculated from the dose response curve of the percent inhibition of the maximum signal in the assay according to the formula [max signal—background/test compound signal—background (100)=% inhibition] by graphing the percent inhibition against the log concentration of test compound. Known inhibitor compounds appropriate for the kinase being assayed were also included on each plate.
(§3) CDK2 in complex with cyclin A is commercially available (Upstate Biotech, Lake Placid, N.Y.). The CDK4 complex was composed of a mouse CDK4 protein and a mouse Cyclin D1 protein (The mouse CDK4 protein was genetically fused to an N-terminal Flag-epitope tag and the mouse Cyclin D1 protein was fused with an N-terminal AU-1 epitope tag. The genes encoding these proteins were transferred to commercially available baculoviral vectors. The recombinant CDK4/D1 complex was then made by co-infecting commercially available insect cells with viruses carrying these two constructs). […] ERK-1 protein (Discontinued from Calbiochem). EGFR (epidermal growth factor receptor) is purified from human A431 cell membranes (Sigma, St. Louis, Mo., Cat.# E3641).

[3] = target: T3, HER2 (human epidermal growth factor receptor-2) (Homo sapiens, UniProt P04626); experiment: Kinase Selectivity Assay HER2; conditions: Table 1; read-out: HER2 IC50
T3 construct: begins at amino acid 676 followed by the remainder of the HER2 cytoplasmic domain; polyhistidine (N)
T3 sequence (P04626 676-1255 limits assumed): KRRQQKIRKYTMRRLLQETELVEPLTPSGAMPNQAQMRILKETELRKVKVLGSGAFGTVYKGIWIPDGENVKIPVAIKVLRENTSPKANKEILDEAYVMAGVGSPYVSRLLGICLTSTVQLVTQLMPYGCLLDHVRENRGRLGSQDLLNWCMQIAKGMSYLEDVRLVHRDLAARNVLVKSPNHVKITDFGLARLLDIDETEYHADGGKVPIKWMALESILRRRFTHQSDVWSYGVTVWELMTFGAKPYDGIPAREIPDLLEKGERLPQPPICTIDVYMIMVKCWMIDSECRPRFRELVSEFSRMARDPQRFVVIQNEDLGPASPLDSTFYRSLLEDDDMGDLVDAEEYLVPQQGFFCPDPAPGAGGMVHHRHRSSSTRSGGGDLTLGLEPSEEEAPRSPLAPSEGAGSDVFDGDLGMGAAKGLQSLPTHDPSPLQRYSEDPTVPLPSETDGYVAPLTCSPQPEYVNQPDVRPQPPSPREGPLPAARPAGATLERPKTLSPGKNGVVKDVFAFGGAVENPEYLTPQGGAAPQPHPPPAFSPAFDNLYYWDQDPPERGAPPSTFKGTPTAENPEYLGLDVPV
Procedure: as §2, §3

T1 sequence (P06493 whole entry): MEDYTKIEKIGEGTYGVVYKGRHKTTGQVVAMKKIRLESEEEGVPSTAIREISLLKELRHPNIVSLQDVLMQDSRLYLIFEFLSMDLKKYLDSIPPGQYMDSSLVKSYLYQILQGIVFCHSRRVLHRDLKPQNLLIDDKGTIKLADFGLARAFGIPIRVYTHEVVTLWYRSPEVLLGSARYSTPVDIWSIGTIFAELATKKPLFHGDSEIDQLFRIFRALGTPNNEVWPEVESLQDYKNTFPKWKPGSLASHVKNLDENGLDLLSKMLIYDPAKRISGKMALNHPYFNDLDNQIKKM
T1 sequence (P14635 whole entry partner): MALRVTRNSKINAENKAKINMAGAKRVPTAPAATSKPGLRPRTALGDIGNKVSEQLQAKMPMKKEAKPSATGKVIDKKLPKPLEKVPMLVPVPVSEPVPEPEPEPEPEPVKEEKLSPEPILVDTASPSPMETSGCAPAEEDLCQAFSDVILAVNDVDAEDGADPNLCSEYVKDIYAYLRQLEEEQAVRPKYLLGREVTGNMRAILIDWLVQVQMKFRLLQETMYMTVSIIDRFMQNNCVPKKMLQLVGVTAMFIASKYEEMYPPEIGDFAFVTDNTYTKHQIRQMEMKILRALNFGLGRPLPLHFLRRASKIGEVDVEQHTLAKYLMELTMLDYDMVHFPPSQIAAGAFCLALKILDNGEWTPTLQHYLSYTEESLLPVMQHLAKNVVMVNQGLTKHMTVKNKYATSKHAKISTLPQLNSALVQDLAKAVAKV

| SMILES | IC50 [1] | IC50 [2] | IC50 [3] |
| --- | --- | --- | --- |
| Nc1nc(Nc2ccc(S(N)(=O)=O)cc2)nn1C(=O)c1cc2ccccc2s1 [Cpd 31, 4-[[5-amino-1-(benzo[b]thien-2-ylcarbonyl)-1H-1,2,4-triazol-3-yl]amino]-benzenesulfonamide] | 0.03 µM | 0.044 µM |  |
| Cc1nnsc1C(=O)n1nc(Nc2ccc(S(N)(=O)=O)cc2)nc1N [Cpd 36, 4-[[5-amino-1-[(4-methyl-1,2,3-thiadiazol-5-yl)carbonyl]-1H-1,2,4-triazol-3-yl]amino]-benzenesulfonamide] | 1.56 µM | 18.6 µM |  |
| Nc1nc(Nc2ccc(S(N)(=O)=O)cc2)nn1C(=O)c1csnn1 [Cpd 37, 4-[[5-amino-1-(1,2,3-thiadiazol-4-ylcarbonyl)-1H-1,2,4-triazol-3-yl]amino]-benzenesulfonamide] | 10.5 µM | 55 µM |  |
| Nc1nc(Nc2ccc(S(N)(=O)=O)cc2)nn1C(=O)/C=C/c1cccs1 [Cpd 42, 4-[[5-amino-1-[(2E)-1-oxo-3-(2-thienyl)-2-propenyl]-1H-1,2,4-triazol-3-yl]amino]-benzenesulfonamide] | 0.134 µM | 0.443 µM |  |
| Nc1nc(Nc2ccc(S(N)(=O)=O)cc2)nn1C(=O)/C=C/c1c(F)cccc1F [Cpd 44, 4-[[5-amino-1-[(2E)-3-(2,6-difluorophenyl)-1-oxo-2-propenyl]-1H-1,2,4-triazol-3-yl]amino]-benzenesulfonamide] | 0.522 µM | 2.68 µM |  |
| Nc1nc(Nc2ccc(S(N)(=O)=O)cc2)nn1C(=O)C1CCCCCC1 [Cpd 45, 4-[[5-amino-1-(cycloheptylcarbonyl)-1H-1,2,4-triazol-3-yl]amino]-benzenesulfonamide] | 0.0137 µM | 0.355 µM |  |
| CC1CCCCC1C(=O)n1nc(Nc2ccc(S(N)(=O)=O)cc2)nc1N (centres unmarked) [Cpd 47, 4-[[5-amino-1-[(2-methylcyclohexyl)carbonyl]-1H-1,2,4-triazol-3-yl]amino]-benzenesulfonamide] | 0.0586 µM | 2.52 µM |  |
| Nc1nc(Nc2ccc(S(N)(=O)=O)cc2)nn1C(=O)c1sccc1-n1cccc1 [Cpd 50, 4-[[5-amino-1-[[3-(1H-pyrrol-1-yl)-2-thienyl]carbonyl]-1H-1,2,4-triazol-3-yl]amino]-benzenesulfonamide] | 0.12 µM | 0.19 µM | 0.2 µM |
| CC(C)(C)OC(=O)/C=C/c1ccc(C(=O)n2nc(Nc3ccc(S(N)(=O)=O)cc3)nc2N)s1 [Cpd 52, 3-[5-[[5-amino-3-[[4-(aminosulfonyl)phenyl]amino]-1H-1,2,4-triazol-1-yl]carbonyl]-2-thienyl]-(2E)-2-propenoic acid-1,1-dimethylethyl ester] | 0.035 µM | 0.11 µM | 1.47 µM |
| Nc1nc(Nc2ccc(S(N)(=O)=O)cc2)nn1C(=O)c1ccc(C#Cc2ccccc2)s1 [Cpd 53, 4-[[5-amino-1-[[5-(phenylethynyl)-2-thienyl]carbonyl]-1H-1,2,4-triazol-3-yl]amino]-benzenesulfonamide] | > 1 µM | > 1 µM | > 1 µM |
| Cc1cccc(C)c1C(=O)n1nc(Nc2ccc(S(N)(=O)=O)cc2)nc1N [Cpd 56, 4-[[5-amino-1-(2,6-dimethylbenzoyl)-1H-1,2,4-triazol-3-yl]amino]-benzenesulfonamide] | 0.49 µM | 20 µM | 4.17 µM |
| Nc1nc(Nc2ccc(S(N)(=O)=O)cc2)nn1S(=O)(=O)c1c(F)cccc1F [Cpd 68, 4-[[5-amino-1-[(2,6-difluorophenyl)sulfonyl]-1H-1,2,4-triazol-3-yl]amino]-benzenesulfonamide] | 0.66 µM | 5.14 µM |  |

Second part, the compound after the results:

| IC50 [1] | IC50 [2] | IC50 [3] | SMILES |
| --- | --- | --- | --- |
| 0.195 µM | 11.1 µM |  | Nc1nc(Nc2ccc(S(N)(=O)=O)cc2)nn1C(=O)Cc1cccs1 [Cpd 40, 4-[[5-amino-1-(2-thienylacetyl)-1H-1,2,4-triazol-3-yl]amino]-benzenesulfonamide] |
| 0.0873 µM | 0.628 µM |  | Nc1nc(Nc2ccc(S(N)(=O)=O)cc2)nn1C(=O)Cc1c(F)cccc1F [Cpd 43, 4-[[5-amino-1-[(2,6-difluorophenyl)acetyl]-1H-1,2,4-triazol-3-yl]amino]-benzenesulfonamide] |
| 0.0358 µM | 0.453 µM |  | CC1CCC(C(=O)n2nc(Nc3ccc(S(N)(=O)=O)cc3)nc2N)CC1 (centres unmarked) [Cpd 46, 4-[[5-amino-1-[(4-methylcyclohexyl)carbonyl]-1H-1,2,4-triazol-3-yl]amino]-benzenesulfonamide] |
| 2.6 µM | ~100 µM |  | CCCCC1CCC(C(=O)n2nc(Nc3ccc(S(N)(=O)=O)cc3)nc2N)CC1 (centres unmarked) [Cpd 48, 4-[[5-amino-1-[(4-butylcyclohexyl)carbonyl]-1H-1,2,4-triazol-3-yl]amino]-benzenesulfonamide] |
| > 1 µM | > 1 µM | > 1 µM | Nc1nc(Nc2ccc(S(N)(=O)=O)cc2)nn1C(=O)c1ccc(-c2ccccn2)s1 [Cpd 49, 4-[[5-amino-1-[[5-(2-pyridinyl)-2-thienyl]carbonyl]-1H-1,2,4-triazol-3-yl]amino]-benzenesulfonamide] |
| 0.55 µM | 14 µM | 6.1 µM | Nc1nc(Nc2ccc(S(N)(=O)=O)cc2)nn1C(=O)c1c(F)ccc([N+](=O)[O-])c1F [Cpd 54, 4-[[5-amino-1-(2,6-difluoro-3-nitrobenzoyl)-1H-1,2,4-triazol-3-yl]amino]-benzenesulfonamide] |
| 1.54 µM | 0.92 µM | 7.83 µM | Nc1nc(Nc2ccc(S(=O)(=O)O)cc2)nn1C(=O)c1c(F)cccc1F [Cpd 59, 4-[[5-amino-1-(2,6-difluorobenzoyl)-1H-1,2,4-triazol-3-yl]amino]-benzenesulfonic Acid] |
| 2.21 µM | > 10 µM |  | Nc1nc(Nc2ccc(S(N)(=O)=O)cc2)n(C(=O)c2c(F)cccc2F)n1 [Cpd 122, 4-[[3-amino-1-(2,6-difluorobenzoyl)-1H-1,2,4-triazol-5-yl]amino]-benzenesulfonamide] |
